Results as given in patent US11857535B2, “Methods of treating mutant lymphomas” (Kymera Therapeutics, Inc., priority 2020, dated 2024).

Assays:
[1] = target: T1, IRAK4 (Homo sapiens, UniProt Q9NWZ3); test: IRAK4 MSD degradation in OCI-Ly10; assay type: cell-based; settings: FIG. 1
T1 construct: endogenous in cells; host or cells: OCI-Ly10
T1 sequence (Q9NWZ3 1-460): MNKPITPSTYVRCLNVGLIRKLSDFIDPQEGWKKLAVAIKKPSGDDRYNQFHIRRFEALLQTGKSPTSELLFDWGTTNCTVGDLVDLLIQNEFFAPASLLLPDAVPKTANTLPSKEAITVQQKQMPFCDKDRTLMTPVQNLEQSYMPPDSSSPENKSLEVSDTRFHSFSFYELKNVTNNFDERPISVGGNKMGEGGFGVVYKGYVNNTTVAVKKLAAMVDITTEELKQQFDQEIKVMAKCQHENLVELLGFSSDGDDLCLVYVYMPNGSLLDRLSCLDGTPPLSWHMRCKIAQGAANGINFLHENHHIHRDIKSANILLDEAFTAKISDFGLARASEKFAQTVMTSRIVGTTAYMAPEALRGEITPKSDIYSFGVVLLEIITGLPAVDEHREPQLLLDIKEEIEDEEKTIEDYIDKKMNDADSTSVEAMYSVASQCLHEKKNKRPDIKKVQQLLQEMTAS
Protocol: Degradation of IRAK4 in OCI-Ly10 was quantitatively measured using Meso Scale Discovery technology. OCI-Ly10 cells were seeded in 96-well plates (Corning 3799) with a density of 300,000 cells per well in 100 μL fresh media. Compounds were then added to the assay plates with a final top concentration of 1 to 10 μM in a 1:3 dilution series with total of 8 doses. The assay plates were then incubated for 4 to 24 hours at 37° C. under 5% CO2. The assay plates were then centrifuged for 5 minutes and the cell pellets were treated with 100 μL/well RIPA lysis buffer (Boston BioProducts BP-115D) with proteinase inhibitors. To prepare MSD assay plates (Meso Scale Discovery Catalog number L15XA-3), the plates were coated with 2 μg/mL capture antibody (mouse Anti-IRAK4 antibody [2H9], ab119942) in PBS, at 40 μL/well. The plates were then incubated overnight at 4° C., washed 3 times with 150 μL/well TBST buffer (Cell Signaling Technology, Catalog number 9997S) and blocked with 150 μL/well blocking buffer (Meso Scale Discovery Catalog number R93BA-4). Cell lysates were then added to MSD assay plates and the plates were incubated at room temperature for 1 hour. The plates were then washed 3 times with 150 μL/well TBST buffer and […] primary detection antibody (rabbit Anti-IRAK4 antibody [Y279], from Abcam. Catalog number ab32511, 1 μg/mL). The assay plates were then incubated at room temperature for 1 hour, washed 3 times with 150 μL/well TBST buffer and 25 μL/well secondary detection antibody, SULFO-TAG anti-rabbit antibody were added (anti rabbit antibody from Meso Scale Discovery, Catalog number R32AB-1, 1 μg/mL). The assay plates were then incubated at room temperature for 1 hour, washed 3 times with 150 μL/well TBST buffer, and 150 μL/well MSD reading buffer (Meso Scale Discovery catalog number R92TC-2) was added. The plates were then analyzed by a MSD reader (Meso Scale Discovery, Model Quick Plex SQ 120). The data was then analyzed by software Prism 7.0 from GraphPad and the dose-depended IRAK4 degradation were fit using a three-parameter logistic equation to calculate DC50.

[2] = target: T1, IRAK4; test: IRAK4 degradation in OCI-LY10 xenograft tumors (UPLC-MS/MS, tumor PD); assay type: in vivo; settings: for IRAK4 (% Deg): tumor PD, after 5d dosing
Protocol: At termination: At pre-determined time points based on study design, animals were humanely sacrificed by CO2. Blood was obtained by cardiac puncture for isolation of plasma, any residual tumor was removed and divided in 2 portions, 1 (minimal) for terminal compound exposure and 1 to determine IRAK4 and actin. Compound was determined in tumor and plasma using LC/MS with calibrated standards.
Interleukin-1 receptor-associated kinase 4 (IRAK4) was quantified in human OCI-LY10 xenograft tumors, together with mouse splenocytes and peripheral blood mononuclear cells (PBMCs), by ultra-performance liquid chromatography-tandem mass spectrometry (UPLC-MS/MS). The concentrations of IRAK4 were normalized by the concentrations of actin in the respective samples. The tumors, splenocytes and PBMCs were lysed in tissue protein extraction reagent (T-PER, ThermoFisher). The samples were centrifuged at 10,000 rpm for 10 minutes. The supernatant (cell lysate) was transferred to another tube. The cell lysates were denatured, reduced, and alkylated with iodoacetamide. The alkylated samples were treated with trypsin to generate the IRAK4 peptide LAVAIK and the actin peptide GYSFTTTAER. These peptides are unique and specific to IRAK4 and actin, respectively, in human, rat and mouse cells and tissues due to sequence conservation between these species.
Signature peptide concentrations were quantitated using a sensitive and specific targeted LC-MS/MS method. Corresponding mass-shifted, stable isotope-labeled peptides (LAV(d8)AIK and GYSF(d8)TTTAE(d6)R) were used as internal standards (ISs). Calibration standards and were prepared fresh on the day of analysis by diluting synthetic LAVAIK and […] peptides into 0.1% formic acid in 90/10 water acetonitrile (v/v). The standards and study samples) were aliquoted into a 96-well plate and mixed with IS spiking solution. The sample plate was covered with heating foil.
Signature peptide levels (LAVAIK, GYSFTTTAER) were quantified by UPLC-MS/MS. Injections were made using a Shimadzu ultra performance liquid chromatograph (UPLC) platform. Mobile phase A was 0.1% formic acid in water. Mobile phase B was 0.1% formic acid in 90:10 acetonitrile/water (v/v). A SCIEX TripleTOF 6600 LC-MS/MS system was used for the detection and quantitation of analytes. The intensities of the analytes and ISs were determined by integration of extracted ion peak areas using Analyst and MultiQuant 3.0 software. Calibration curves were prepared by plotting the analyte to IS peak area ratio vs. concentration. The model for the calibration curves was linear with 1/x^2 weighting. […] Measured peptide levels were corrected for sample work up and converted to actual protein concentrations in ng/mg total protein of cell lysate. […]

Structure (SMILES): CC(C)(O)c1cc2nc([C@H]3CC[C@H](CN4CC5(CC(CCNc6cccc7c6C(=O)N(C6CCC(=O)NC6=O)C7=O)C5)C4)CC3)sc2cc1NC(=O)c1cccc(C(F)(F)F)n1 (some centres unmarked) [Compound A, N-(2-((1r,4r)-4-((6-(2-((2-(2,6-dioxopiperidin-3-yl)-1,3-dioxoisoindolin-4-yl)amino)ethyl)-2-azaspiro[3.3]heptan-2-yl)methyl)cyclohexyl)-5-(2-hydroxypropan-2-yl)benzo[d]thiazol-6-yl)-6-(trifluoromethyl)picolinamide]
- IRAK4 degradation associated with CTG IC90 [1]: approximately 70%
- tumor PD effect ([2]; following a single dose, FIG. 4): sustained PD effect
- IRAK4 (% Deg) ([2]; 3 mpk): 16%
- IRAK4 (% Deg) ([2]; 10 mpk): 75%
- IRAK4 (% Deg) ([2]; 30 mpk): 83%
